# Test results as given in patent US20240335456A1, “CO-CRYSTAL COMPOSITION AND ITS PHARMACEUTICAL USE” (SYN-NAT PRODUCTS ENTERPRISE LLC, priority 2015, published 2024).
# Where “and” joins values, the source holds several entries; their conditions need not be identical. Equal entries are not always repeated.
# What was measured:
# [1] = tested on: benign prostatic hyperplasia (BPH); test: Mouse model of BPH (white cell number, lecithin density, prostate tissue); format: in vivo
# Description: In the BPH model group (FIG. 7), glands proliferation and a small amount of lymphocytes and plasma cells were shown.
# [2] = tested on: Human MH7A synovial cells; test: MH7A synovial cell proliferation (cell numbers 48 hours after treatment); format: cell-based
# Method: (§1) Human MH7A synovial cells were cultured in vitro and proliferation of the cells was measured by quantifying cells numbers 48 hours after treatment. The cells were treated with DCP at concentrations of 1.563 μg/ml; 3.125 μg/ml; 6.25 μg/ml; 12.5 μg/ml; 25 μg/ml; 50 μg/ml; or 100 μg/ml.
# [3] = tested on: rheumatoid arthritis, osteoarthritis, arthrolithiasis (gout); test: Phase II and Phase III clinical trials in SCLC patients also suffering from rheumatoid arthritis, osteoarthritis, gout and other diseases; format: in vivo, human; conditions: DCP 1 to about 10 mg/kg body weight
# Method: DCP alleviated symptoms for clinical trial patients suffering from multiple diseases. In China, DCP (1 to about 10 mg/kg body weight) in combination with cisplatin and Paclitaxel were used in Phase II and Phase III clinical trials for treatment of patients having small cell lung cancer (SCLC). The cancer patients were simultaneously suffering from a number of proliferative diseases, degenerative diseases, immunological diseases, and other diseases as indicated above. For example, some of the patients were suffering from rheumatoid arthritis, osteoarthritis, arthrolithiasis (gout) and/or other diseases. […] Such diseases include at least rheumatoid arthritis, osteoarthritis, and arthrolithiasis (gout). […] When DCP was administered with an additional therapeutic agent or adjuvant therapy agent such as folic acid, coenzyme Q10, curcumin, glutathione (GSH), aloe vera, oryzanol, 5-fluorouracil, bortezomib, the effects to reduce disease symptoms were further enhanced.
# nonbacterial prostatitis = test: Mouse model for prostatitis, prostate tissue pathology; format: in vivo
# Description: Mouse model for prostatitis was utilized to study the effects of DCP.
# [4] = Phase I dose-escalation, Chinese cancer patients; cited from earlier work
# [5] = tested on: Human fibroblast-like synoviocytes rheumatoid arthritis (HFLS-RA) cells; test: HFLS-RA cell proliferation (cell numbers 48 hours after treatment); format: cell-based
# Method: as §1, with “fibroblast-like synoviocytes rheumatoid arthritis (HFLS-RA)” for “MH7A synovial”
# [6] = tested on: benign prostatic hyperplasia (BPH); test: Study of DCP in male cancer patients also suffering from BPH; format: in vivo, human
# [7] = 48 hours after treatment, 1.563-100 μg/ml
# [8] = majority of BPH patients, after two weeks of use
molecule,measurement,setting,value
"CC(C)(C)NC(=O)[C@H]1CC[C@H]2[C@@H]3CC[C@H]4NC(=O)C=C[C@]4(C)[C@H]3CC[C@]12C [PROSCAR, Finasteride, reference compound]","Prostate tissue findings (inflammation cells, glandular proliferation)","[1]; PROSCAR drug group, FIG. 8","glandular proliferation was not clear, but inflammation cells were reduced"
Dicycloplatin [DCP],"IC50, inhibition of MH7A cell proliferation",[2]; [7],8.926 µg/mL and 8.92 µg/mL
same,MH7A cell proliferation inhibited,[2]; FIG. 2,99%
same,Side effects,[3],less patients receiving DCP alone were suffering from side effects and the side effects were of less severity
same,"Symptoms of proliferative, degenerative, immunological and other diseases",[3],significantly alleviated the symptoms
same,"Effective amount for human, based on the effective amount in mice",nonbacterial prostatitis; extrapolated from mouse prostatitis model,1 to 10 mg/Kg body weight
same,Outcome of mice with nonbacterial prostatitis,nonbacterial prostatitis; treatment for 1-2 weeks,returned to normal
same,Granulomatous lesions in prostate tissue,"nonbacterial prostatitis; treatment for one week, FIG. 5",significantly reduced in some tissues or eliminated in others
same,Inflammatory cells in interstitial infiltration,"nonbacterial prostatitis; treatment for one week, FIG. 5",significantly reduced
same,Tolerated doses,[4],100 to 550 mg/m^2
same,Lecithin corpuscle (density),[1]; DCP injection,30 ± 0.53
same,White cell (number/μL),[1]; DCP injection,3250 ± 65 number/μL
same,Lecithin corpuscle (density),[1]; DCP oral,27 ± 0.50
same,White cell (number/μL),[1]; DCP oral,3500 ± 71 number/μL
same,Enlargement of prostate,[1]; after treatment for a therapeutic period,significant inhibited
same,"Prostate tissue findings (inflammatory cells, glandular proliferation)","[1]; intravenous administration, FIG. 9","inflammatory cells were significantly reduced, and glandular proliferation was inhibited"
same,"Prostate tissue findings (inflammatory cells, glandular proliferation)","[1]; oral administration, FIG. 10",inflammatory cells were significantly reduced and glandular proliferation was inhibited
same,"IC50, inhibition of HFLS-RA cell proliferation",[5]; [7],3.914 µg/mL and 3.125 µg/mL
same,HFLS-RA cell proliferation inhibited,[5]; FIG. 1,99%
same,Enlargement of prostate,[6]; [8],obviously inhibited
same,Maximum of urinary volume,[6]; [8],more than 12 mL/s
same,PSA,[6]; [8],decreased
same,Symptoms of BPH,[6]; male patients with cancers and BPH,significantly alleviated
